Test results reported in US20240122926A1, “APELIN RECEPTOR MODULATORS FOR TREATING MUSCLE CONDITIONS” (priority 2022, published 2024).
pEC50: −log10 of the molar value. Where two headings read alike, the source gives them in different places.

How the values were obtained:
[1] = test system: 24-month-old C57BL/6 mice; experiment: Activity monitoring wheel test in aged mice (frailty study); format: in vivo, mouse; details: 275 ug/mL in drinking water; both experiments; average
Protocol: The animals were housed with access to voluntary running wheels that wirelessly transmit running data to a computer for analysis. Voluntary running wheel activity levels were measured daily, and body weights were measured every 2 weeks.
The study concluded on Study Day 83. Activity wheel monitoring started on Study Day 1 and ended on Study Day 83 (Phase Day 64). The data was analyzed at the end of the study. […] For the frailty portion of the study, mice were assessed using an activity monitoring wheel which was monitored passively with a computer monitoring system.
BGE-105 was administered in drinking water consumed ad libitum. The compound is mildly acidic when dissolved, resulting in a pH 4.5 solution. The deionized water was adjusted to pH 8.5 by adding 1N NaOH. […]
The activity-monitoring wheel is a running disk that monitors rotations. […] Activity was monitored passively and wirelessly with a computer monitoring system. Running wheel activity levels were monitored daily. […] Mouse activity levels were measured as the number of wheel revolutions per day for each mouse and converted into a daily count of kilometers run using the diameter of the wheel. Within each experimental group, the daily median value for activity was calculated. […] The daily differences between the distances run in each group were calculated and tested for an increasing trend using Kendall's rank correlation tau.

[2] = test system: Twenty-month-old male C57/Bl6 mice; experiment: Hindlimb immobilization (casting, 21 days) disuse atrophy in aged mice, muscle wet weight; format: in vivo, mouse; details: 50 mg/kg BID P.O.; 21 days immobilization (placebo group 25%)
Source text: Limb immobilization causes a loss of gross skeletal muscle mass accompanied by a significant decrease in apelin transcript levels.
One week into the treatment, mice underwent modified hindlimb casting on one limb. Mice were anesthetized with isoflurane inhalation and the hindlimb wiped with povidone-iodine, then ethanol, and loosely wrapped in surgical gauze. A custom-made plastic immobilization device was placed on the limb, with the foot in full extension, so as to result in the maximal in vivo unloading of the plantarflexor group. The device was fixed to the hindlimb using Vetbond and the animal returned to its cage. After 3 weeks of treatment following casting, mice were euthanized 1 hour after the final ZT1 dose, and tissues isolated, weighed, then flash frozen in liquid nitrogen for subsequent western blot analysis.

mouse APLNR = target: T1, mouse APLNR (Mus musculus, UniProt Q9WV08); experiment: PathHunter β-arrestin eXpress GPCR assay, CHO cells stably expressing mouse APLNR; format: cell-based; details: for Emax: CHO
T1 construct: host or cells: CHO cells
T1 sequence (Q9WV08 1-377): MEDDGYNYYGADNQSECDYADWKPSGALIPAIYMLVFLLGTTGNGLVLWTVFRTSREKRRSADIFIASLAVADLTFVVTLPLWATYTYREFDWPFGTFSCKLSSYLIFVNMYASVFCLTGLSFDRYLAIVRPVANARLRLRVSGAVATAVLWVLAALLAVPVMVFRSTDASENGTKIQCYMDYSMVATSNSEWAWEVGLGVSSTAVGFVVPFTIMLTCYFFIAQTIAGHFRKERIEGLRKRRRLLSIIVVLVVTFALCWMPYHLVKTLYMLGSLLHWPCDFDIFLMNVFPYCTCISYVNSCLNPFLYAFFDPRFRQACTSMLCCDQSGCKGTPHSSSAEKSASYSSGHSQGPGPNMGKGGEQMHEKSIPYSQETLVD
Protocol: APLNR activation was determined by β-arrestin recruitment as measured by the ProLink […] complementation technology (93-0001, DiscoveRx). In brief, CHO cells stably expressing APLNR were seeded and incubated overnight at 37° C. The compounds were tested in duplicate and diluted to obtain a 10-point curve with 3-fold serial dilutions (<1% DMSO). The compounds and cells were incubated for 3 hours at 37° C. After the incubation period the detection reagents were added and the plate chemiluminescent signal was measured after 30 min at RT.

[3] = test system: healthy volunteers aged ≥65 years; experiment: Phase 1b bed rest study, muscle protein synthesis rate (heavy water, vastus lateralis microbiopsy); format: in vivo, human
Protocol: Heavy Water Consumption and Assessments. For subjects in Part B only, heavy water, deuterated H2O (D2O), is provided to subjects to drink during the pre-treatment and treatment periods before breakfast, in the afternoon, and after fasting overnight, at timepoints described previously. Blood samples (10 mL) and urine samples are collected at timepoints described previously to assess skeletal muscle protein fractional synthetic rate (FSR).
Skeletal muscle protein synthesis rate (%/time) for individual muscle proteins are compared first as a linear contrast including all doses versus placebo and then as individual dose comparisons to placebo.
One day before (baseline, D-1) and 5 (D5) and 10 (D10) days after initiation of bed rest, key muscle atrophy endpoints were measured: thigh circumference; cross-sectional area (CSA) and A-P diameter of vastus lateralis (ultrasound); ultrasound muscle quality grade, an index that quantifies fatty degeneration in muscle (ultrasound echo density); and muscle protein synthesis rate (biopsy). Parameters measured during the 10-day bed rest period include thigh circumference, muscle size, muscle quality (e.g., fatty degeneration), and muscle protein synthetic rate.

SMILES: COc1cccc(OC)c1-n1c(NS(=O)(=O)[C@@H](C)[C@H](C)c2ncc(C)cn2)nnc1-c1cncc(C)c1 [BGE-105, (2S,3R)—N-(4-(2,6-dimethoxyphenyl)-5-(5-methyl-3-pyridinyl)-4H-1,2,4-triazol-3-yl)-3-(5-methyl-2-pyrimidinyl)-2-butanesulfonamide]
- distance run more than vehicle-treated mice at end of experimental period [1]: at least 1 km/day
- decrease of wet weight of tibialis anterior (TA) muscle in casted limb [2]: 3%
- pEC50 (mouse APLNR): 9.10
- Emax (mouse APLNR; read-out: maximum effect (Emax)): 65%
- Emax (mouse APLNR; read-out: maximum effect (Emax), replication): 60%
- mean normalized fraction synthetic rate, range ([3]; BGE-105 treated patients with elevated rate, 10 days bed rest): 0.18-2.2
- number of patients (out of 11) with elevated rate of muscle protein synthesis ([3]; after 10 days of bed rest): 8
- decrease in the synthetic rate of muscle myofibril proteins (FSR/day) from baseline ([3]; vastus lateralis (placebo 58%)): 36%
